Active and inactive are the calls of the source. The rule behind the calls is not given here.
Key:
[1] = molecular target: T1, Mushroom tyrosinase (Agaricus bisporus, UniProt O42713+Q00024+C7FF04+C7FF05); experiment: Inhibition of mushroom tyrosinase using L-DOPA as substrate preincubated for 10 mins followed by substrate addition measured after 20 mins
[2] = molecular target: T1, Mushroom tyrosinase; experiment: Non-competitive inhibition of mushroom tyrosinase at 1.06 to 17 uM preincubated for 10 mins followed by addition of varying concentration of substrate L-DOPA measured after 20 mins by Lineweaver-Burk plot analysis
[3] = molecular target: Mushroom tyrosinase (Agaricus bisporus) (UniProt O42713+Q00024+C7FF04+C7FF05); experiment: Non-competitive inhibition of mushroom tyrosinase at 1.06 to 34 uM preincubated for 10 mins followed by addition of varying concentration of substrate L-DOPA measured after 20 mins by Dixon plot analysis
[4] = system: COC(=O)/C=C1\S/C(=N/N=C/c2ccncc2)NC1=O; experiment: Non-competitive inhibition of mushroom tyrosinase assessed as Vmax of substrate at 1.06 uM preincubated for 10 mins followed by addition of varying concentration of substrate L-DOPA measured every 30 secs up to 5 mins by Lineweaver-Burk plot analysis (reference value: […] deltaA/s); conditions: Agaricus bisporus
[5] = system: COC(=O)/C=C1\S/C(=N/N=C/c2ccncc2)NC1=O; experiment: Non-competitive inhibition of mushroom tyrosinase assessed as Vmax of substrate at 8.50 uM preincubated for 10 mins followed by addition of varying concentration of substrate L-DOPA measured every 30 secs up to 5 mins by Lineweaver-Burk plot analysis (reference value: […] deltaA/s); conditions: Agaricus bisporus
[6] = system: COC(=O)/C=C1\S/C(=N/N=C/c2ccncc2)NC1=O; experiment: Non-competitive inhibition of mushroom tyrosinase assessed as Vmax of substrate at 17 uM preincubated for 10 mins followed by addition of varying concentration of substrate L-DOPA measured every 30 secs up to 5 mins by Lineweaver-Burk plot analysis (reference value: […] deltaA/s); conditions: Agaricus bisporus
[7] = system: COC(=O)/C=C1\S/C(=N/N=C/c2ccncc2)NC1=O; experiment: Non-competitive inhibition of mushroom tyrosinase assessed as substrate Km at 1.06 to 17 uM preincubated for 10 mins followed by addition of varying concentration of substrate L-DOPA measured after 20 mins by Lineweaver-Burk plot analysis (reference value: […] mM); conditions: Agaricus bisporus

Sequence of Mushroom tyrosinase (Agaricus bisporus) (from UniProt O42713+Q00024+C7FF04+C7FF05) (C7FF05 whole entry, looked up): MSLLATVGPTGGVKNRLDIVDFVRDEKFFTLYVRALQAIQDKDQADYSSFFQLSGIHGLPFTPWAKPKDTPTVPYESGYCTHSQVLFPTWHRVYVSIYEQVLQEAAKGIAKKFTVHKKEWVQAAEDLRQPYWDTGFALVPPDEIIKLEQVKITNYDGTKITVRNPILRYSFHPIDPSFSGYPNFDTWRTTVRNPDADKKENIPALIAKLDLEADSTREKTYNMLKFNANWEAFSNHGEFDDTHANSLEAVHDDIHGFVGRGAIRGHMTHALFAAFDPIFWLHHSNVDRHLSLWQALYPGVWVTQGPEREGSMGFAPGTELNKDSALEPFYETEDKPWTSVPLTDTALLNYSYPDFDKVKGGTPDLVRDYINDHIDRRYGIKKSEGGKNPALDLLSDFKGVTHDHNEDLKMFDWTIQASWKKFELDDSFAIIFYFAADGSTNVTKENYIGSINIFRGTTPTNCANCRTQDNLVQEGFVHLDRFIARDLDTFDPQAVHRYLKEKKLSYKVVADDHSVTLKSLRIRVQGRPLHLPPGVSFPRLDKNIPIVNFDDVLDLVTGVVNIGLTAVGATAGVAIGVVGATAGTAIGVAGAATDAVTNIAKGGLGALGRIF
Sequence of Mushroom tyrosinase (Agaricus bisporus) (from UniProt O42713+Q00024+C7FF04+C7FF05) (C7FF04 whole entry, looked up): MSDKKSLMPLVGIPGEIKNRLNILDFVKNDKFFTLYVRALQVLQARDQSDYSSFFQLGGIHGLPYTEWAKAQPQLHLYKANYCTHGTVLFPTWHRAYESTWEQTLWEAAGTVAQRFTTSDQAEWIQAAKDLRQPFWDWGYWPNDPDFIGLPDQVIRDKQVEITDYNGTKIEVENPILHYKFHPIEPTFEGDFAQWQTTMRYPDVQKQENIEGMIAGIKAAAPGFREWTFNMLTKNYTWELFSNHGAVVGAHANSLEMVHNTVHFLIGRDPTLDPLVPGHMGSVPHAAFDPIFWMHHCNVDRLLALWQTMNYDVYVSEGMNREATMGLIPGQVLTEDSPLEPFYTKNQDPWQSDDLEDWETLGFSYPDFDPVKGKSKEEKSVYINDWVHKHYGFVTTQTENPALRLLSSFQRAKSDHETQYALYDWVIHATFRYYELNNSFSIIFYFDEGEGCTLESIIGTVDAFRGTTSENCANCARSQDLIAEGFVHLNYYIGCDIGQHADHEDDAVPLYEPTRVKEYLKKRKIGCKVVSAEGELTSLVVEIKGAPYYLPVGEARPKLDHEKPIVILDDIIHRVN
Sequence of Mushroom tyrosinase (Agaricus bisporus) (from UniProt O42713+Q00024+C7FF04+C7FF05) (Q00024 whole entry, looked up): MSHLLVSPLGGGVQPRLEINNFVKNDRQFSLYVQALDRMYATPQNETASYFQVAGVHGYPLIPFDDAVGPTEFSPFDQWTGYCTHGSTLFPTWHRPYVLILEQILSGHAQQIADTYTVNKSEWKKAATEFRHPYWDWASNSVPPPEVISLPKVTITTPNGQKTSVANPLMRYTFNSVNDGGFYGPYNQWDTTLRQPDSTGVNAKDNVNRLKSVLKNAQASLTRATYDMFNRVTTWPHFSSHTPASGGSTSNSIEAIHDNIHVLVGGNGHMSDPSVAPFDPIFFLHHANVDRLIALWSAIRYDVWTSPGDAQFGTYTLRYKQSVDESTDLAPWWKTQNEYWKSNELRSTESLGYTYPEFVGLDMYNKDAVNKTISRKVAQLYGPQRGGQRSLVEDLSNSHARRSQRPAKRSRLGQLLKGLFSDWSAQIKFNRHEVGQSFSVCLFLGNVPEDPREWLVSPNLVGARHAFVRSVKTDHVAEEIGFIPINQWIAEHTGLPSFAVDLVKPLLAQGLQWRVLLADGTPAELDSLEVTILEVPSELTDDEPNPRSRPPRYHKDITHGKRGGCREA
Sequence of Mushroom tyrosinase (Agaricus bisporus) (from UniProt O42713+Q00024+C7FF04+C7FF05) (O42713 whole entry, looked up): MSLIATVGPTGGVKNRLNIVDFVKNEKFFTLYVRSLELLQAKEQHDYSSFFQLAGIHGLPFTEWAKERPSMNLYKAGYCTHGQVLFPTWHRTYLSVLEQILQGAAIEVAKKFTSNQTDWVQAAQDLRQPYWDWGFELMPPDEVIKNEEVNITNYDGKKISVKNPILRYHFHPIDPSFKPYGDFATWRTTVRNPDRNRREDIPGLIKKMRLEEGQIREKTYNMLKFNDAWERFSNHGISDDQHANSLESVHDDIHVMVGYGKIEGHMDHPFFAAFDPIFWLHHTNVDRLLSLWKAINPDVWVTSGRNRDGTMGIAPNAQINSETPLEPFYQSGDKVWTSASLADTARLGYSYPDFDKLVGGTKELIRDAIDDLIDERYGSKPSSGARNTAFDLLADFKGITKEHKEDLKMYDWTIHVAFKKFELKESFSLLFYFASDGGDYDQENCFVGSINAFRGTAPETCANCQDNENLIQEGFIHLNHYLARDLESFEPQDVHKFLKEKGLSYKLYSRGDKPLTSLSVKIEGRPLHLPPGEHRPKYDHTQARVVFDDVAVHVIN

Compound | IC50 [1] [µM] | further results
COC(=O)/C=C1\S/C(=N/N=C/c2ccc[nH]2)NC1=O | 50.12 | –
COC(=O)/C=C1\S/C(=N/N=C/c2ccncc2)NC1=O | 3.17 | Ki [2]: 1.5 µM; inhibition [3]: Active
Mushroom tyrosinase (Agaricus bisporus) (from UniProt O42713+Q00024+C7FF04+C7FF05) | – | Vmax (10'-4deltaA/s) [4]: 5.55; Vmax (10'-3deltaA/s) [5]: 1; Vmax (10'-3deltaA/s) [6]: 3.33; Km [7]: 1000 µM
COC(=O)/C=C1\S/C(=N/N=C/C=C/c2ccccc2)NC1=O | 208.25 | –
COC(=O)/C=C1\S/C(=N/N=C/c2ccc(Br)s2)NC1=O | 348.93 | –

Now from value to compound, other results behind:

IC50 [1] [µM] | Compound | further results
49.82 | COC(=O)/C=C1\S/C(=N/N=C/c2ccc(C)o2)NC1=O | –
297.6 | COC(=O)/C=C1\S/C(=N/N=C/c2ccc(OCc3ccc(OC)cc3)cc2)NC1=O | –
100.45 | COC(=O)/C=C1\S/C(=N/N=C/c2ccc(N(C)C)cc2)NC1=O | –
75.26 | COC(=O)/C=C1\SC(N/N=C/c2ccco2)=NC1=O | –
141.77 | COC(=O)/C=C1\S/C(=N/N=C/c2ccc(OCc3ccccc3)cc2)NC1=O | –

From ChEMBL document CHEMBL4043271, “Synthesis, computational studies and enzyme inhibitory kinetics of substituted methyl[2-(4-dimethylamino-benzylidene)-hydrazono)-4-oxo-thiazolidin-5-ylidene]acetates as mushroom tyrosinase inhibitors” (Bioorg Med Chem, 2017)
